Data from patent US9695155B2, “Herbicidal substituted pyrimidinyloxy benzene compounds” (E. I. DU PONT DE NEMOURS AND COMPANY, priority 2013, dated 2017).

Assays:
oilseed rape = test: Test C preemergence; format: in vivo, Brassica napus
Method in brief: (§1)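 Whole-plant greenhouse test with surfactant-containing solvent formulation, applied preemergence to sown loam–sand pots or postemergence to 2–18 cm plants. Scored by eye 13 to 15 days on, 0–100 scale.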

corn = test: Test A postemergence; format: in vivo, Zea mays
Method in brief: (§2)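 Injury scores run from 0, no effect, to 100, complete control, judged by eye against untreated plants roughly 10 days after treatment. Chemicals carried a surfactant in a non-phytotoxic solvent and went onto loam–sand soil preemergence or onto one- to two-leaf seedlings postemergence.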

soybean = test: Test C preemergence; format: in vivo, Glycine max
Method in brief: as §1

barnyardgrass [1] = test: Test A preemergence; format: in vivo, Echinochloa crus-galli
Method in brief: as §2

barnyardgrass [2] = test: Test B flooded paddy test; format: in vivo, Echinochloa crus-galli; settings: Flood, 250 g ai/ha, 0 to 100 scale where 0 is no effect and 100 is complete control
Method in brief: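 Flooded to 3 cm at the 2-leaf stage, pots received compound through the paddy water and were kept at that depth under greenhouse conditions. After 13–15 days, effect was rated by eye relative to controls, 0 = none and 100 = complete control.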

Italian ryegrass = test: Test C preemergence; format: in vivo, Lolium multiflorum
Method in brief: as §1

galium = test: Test C preemergence; format: in vivo, Galium aparine
Method in brief: as §1

barnyardgrass [3] = test: Test C preemergence; format: in vivo, Echinochloa crus-galli
Method in brief: as §1

large (Lg) crabgrass = test: Test C preemergence; format: in vivo, Digitaria sanguinalis
Method in brief: as §1

[4] = 16 g ai/ha, preemergence, scale 0 to 100 (0 no effect, 100 complete control)
[5] = 62 g ai/ha, preemergence, scale 0 (no effect) to 100 (complete control)
[6] = 125 g ai/ha, preemergence, scale 0 (no effect) to 100 (complete control)
[7] = 125 g ai/ha, 0 to 100 scale where 0 is no effect and 100 is complete control
[8] = 500 g ai/ha, 0 to 100 scale where 0 is no effect and 100 is complete control
[9] = Preemergence, 31 g ai/ha, scale 0 to 100, 0 no effect, 100 complete control
[10] = 31 g ai/ha, 0 to 100 scale, 0 no effect, 100 complete control
[11] = Preemergence, 62 g ai/ha, scale 0 to 100, 0 no effect, 100 complete control
[12] = 125 g ai/ha, 0 to 100 scale, 0 no effect, 100 complete control
[13] = 31 g ai/ha, 0 to 100 scale where 0 is no effect and 100 is complete control, visual, approximately 10 days

COc1cnn(-c2c(C#N)cccc2Oc2ncc(Cl)cn2)c1 [Compound 137]
Oilseed Rape plant response rating (oilseed rape; [4]): 50
Oilseed Rape plant response rating (oilseed rape; [5]): 85
Oilseed Rape plant response rating (oilseed rape; [6]): 95
Corn plant response rating (corn; [7]): 30
Plant response rating, Corn (corn; [8]): 80
Soybean plant response rating (soybean; [4]): 10
Soybean plant response rating (soybean; [5]): 80
Soybean plant response rating (soybean; [6]): 85
Plant response rating, Barnyardgrass (barnyardgrass [1]; [7]): 20
Barnyardgrass plant response rating (barnyardgrass [1]; [8]): 100
Plant response rating, Barnyardgrass (barnyardgrass [2]): 0
Ryegrass, Italian plant response rating (Italian ryegrass; [4]): 0
Ryegrass, Italian plant response rating (Italian ryegrass; [5]): 0
Ryegrass, Italian plant response rating (Italian ryegrass; [6]): 0
Galium plant response rating (galium; [4]): 5
Galium plant response rating (galium; [5]): 10
Galium plant response rating (galium; [6]): 95
Plant response rating, Galium (galium; [9]): 5
Barnyardgrass plant response rating (barnyardgrass [3]; [4]): 0
Barnyardgrass plant response rating (barnyardgrass [3]; [5]): 10
Barnyardgrass plant response rating (barnyardgrass [3]; [6]): 40
Plant response rating, Barnyardgrass (barnyardgrass [3]; [9]): 5
Crabgrass, Large plant response rating (large (Lg) crabgrass; [4]): 10
Crabgrass, Large plant response rating (large (Lg) crabgrass; [5]): 98
Crabgrass, Large plant response rating (large (Lg) crabgrass; [6]): 100
Plant response rating, Crabgrass, Large (large (Lg) crabgrass; [9]): 70

FCc1cccc(Oc2ncc(F)cn2)c1-n1cc(C(F)(F)F)cn1 [Compound 118]
Oilseed Rape plant response rating (oilseed rape; [4]): 98
Oilseed Rape plant response rating (oilseed rape; [5]): 100
Oilseed Rape plant response rating (oilseed rape; [6]): 100
Plant response rating, Oilseed Rape (oilseed rape; [9]): 100
Plant response rating, Corn (corn; [10]): 10
Plant response rating, Corn (corn; [7]): 50
Soybean plant response rating (soybean; [4]): 60
Soybean plant response rating (soybean; [5]): 90
Soybean plant response rating (soybean; [6]): 95
Plant response rating, Soybean (soybean; [9]): 75
Barnyardgrass plant response rating (0 to 100 scale) (barnyardgrass [1]; 31 g ai/ha): 50
Plant response rating, Barnyardgrass (barnyardgrass [1]; [7]): 100
Plant response rating, Barnyardgrass (barnyardgrass [2]): 50
Ryegrass, Italian plant response rating (Italian ryegrass; [4]): 0
Ryegrass, Italian plant response rating (Italian ryegrass; [5]): 70
Ryegrass, Italian plant response rating (Italian ryegrass; [6]): 100
Plant response rating, Ryegrass, Italian (Italian ryegrass; [9]): 40
Galium plant response rating (galium; [4]): 95
Galium plant response rating (galium; [5]): 100
Galium plant response rating (galium; [6]): 100
Plant response rating, Galium (galium; [9]): 95
Barnyardgrass plant response rating (barnyardgrass [3]; [4]): 20
Barnyardgrass plant response rating (barnyardgrass [3]; [5]): 100
Barnyardgrass plant response rating (barnyardgrass [3]; [6]): 100
Plant response rating, Barnyardgrass (barnyardgrass [3]; [9]): 80
Crabgrass, Large plant response rating (large (Lg) crabgrass; [4]): 30
Crabgrass, Large plant response rating (large (Lg) crabgrass; [5]): 85
Crabgrass, Large plant response rating (large (Lg) crabgrass; [6]): 100
Plant response rating, Crabgrass, Large (large (Lg) crabgrass; [9]): 80

FCc1cccc(Oc2ncc(Cl)cn2)c1-n1cc(Cl)cn1 [Compound 250]
Oilseed Rape plant response rating (oilseed rape; [4]): 100
Oilseed Rape plant response rating (oilseed rape; [6]): 100
Plant response rating, Oilseed Rape (oilseed rape; [11]): 100
Plant response rating, Corn (corn; [10]): 10
Plant response rating, Corn (corn; [12]): 30
Soybean plant response rating (soybean; [6]): 90
Plant response rating, Soybean (soybean; [11]): 65
Plant response rating, Barnyardgrass (barnyardgrass [1]; [13]): 10
Barnyardgrass plant response rating (0 to 100 scale, 0 is no effect, 100 is complete control) (barnyardgrass [1]; 125 g ai/ha): 90
Plant response rating, Barnyardgrass (barnyardgrass [2]): 0
Ryegrass, Italian plant response rating (Italian ryegrass; [4]): 0
Ryegrass, Italian plant response rating (Italian ryegrass; [6]): 15
Plant response rating, Ryegrass, Italian (Italian ryegrass; [11]): 5
Galium plant response rating (galium; [4]): 0
Galium plant response rating (galium; [6]): 98
Plant response rating, Galium (galium; [11]): 70
Barnyardgrass plant response rating (barnyardgrass [3]; [4]): 5
Barnyardgrass plant response rating (barnyardgrass [3]; [6]): 100
Plant response rating, Barnyardgrass (barnyardgrass [3]; [11]): 50
Crabgrass, Large plant response rating (large (Lg) crabgrass; [4]): 75
Crabgrass, Large plant response rating (large (Lg) crabgrass; [6]): 100
Plant response rating, Crabgrass, Large (large (Lg) crabgrass; [11]): 98

Fc1cccc(Oc2ncc(Cl)cn2)c1-n1cc(OCC(F)(F)F)cn1 [Compound 270]
Oilseed Rape plant response rating (oilseed rape; [4]): 95
Oilseed Rape plant response rating (oilseed rape; [6]): 100
Plant response rating, Oilseed Rape (oilseed rape; [11]): 100
Plant response rating, Corn (corn; [10]): 20
Plant response rating, Corn (corn; [12]): 50
Soybean plant response rating (soybean; [4]): 0
Soybean plant response rating (soybean; [6]): 85
Plant response rating, Soybean (soybean; [11]): 25
Plant response rating, Barnyardgrass (barnyardgrass [1]; [13]): 20
Barnyardgrass plant response rating (0 to 100 scale, 0 is no effect, 100 is complete control) (barnyardgrass [1]; 125 g ai/ha): 100
Plant response rating, Barnyardgrass (barnyardgrass [2]): 35
Ryegrass, Italian plant response rating (Italian ryegrass; [4]): 0
Ryegrass, Italian plant response rating (Italian ryegrass; [6]): 50
Plant response rating, Ryegrass, Italian (Italian ryegrass; [11]): 10
Galium plant response rating (galium; [4]): 70
Galium plant response rating (galium; [6]): 100
Plant response rating, Galium (galium; [11]): 95
Barnyardgrass plant response rating (barnyardgrass [3]; [4]): 0
Barnyardgrass plant response rating (barnyardgrass [3]; [6]): 100
Plant response rating, Barnyardgrass (barnyardgrass [3]; [11]): 90
Crabgrass, Large plant response rating (large (Lg) crabgrass; [4]): 50
Crabgrass, Large plant response rating (large (Lg) crabgrass; [6]): 100
Plant response rating, Crabgrass, Large (large (Lg) crabgrass; [11]): 100

N#Cc1cccc(Oc2ncc(Cl)cn2)c1-n1cnc(C(F)(F)F)c1 [Compound 252, 3-[(5-chloro-2-pyrimidinyl)oxy]-2-[4-(trifluoromethyl)-1H-imidazol-1-yl]benzonitrile]
plant injury at 16 g/ha (oilseed rape; Brassica napus, pre-emergence, 16 g ai/ha, preemergence, scale 0 to 100 (0 no effect, 100 complete control), read-out: Oilseed Rape plant response rating): 80%
plant injury at 125 g/ha (oilseed rape; Brassica napus, pre-emergence, 125 g ai/ha, preemergence, scale 0 (no effect) to 100 (complete control), read-out: Oilseed Rape plant response rating): 100%
plant injury at 62 g/ha (oilseed rape; Brassica napus, pre-emergence, Preemergence, 62 g ai/ha, scale 0 to 100, 0 no effect, 100 complete control, read-out: Plant response rating, Oilseed Rape): 100%
Corn plant response rating (crop injury, 0 = no effect, 100 = complete kill) at 31 g/ha (corn; Zea mays, post-emergence, 240 h, 31 g ai/ha, 0 to 100 scale, 0 no effect, 100 complete control): 20%
Corn plant response rating (crop injury, 0 = no effect, 100 = complete kill) at 125 g/ha (corn; Zea mays, post-emergence, 240 h, 125 g ai/ha, 0 to 100 scale, 0 no effect, 100 complete control): 60%
Corn plant response rating (crop injury, 0 = no effect, 100 = complete kill) at 500 g/ha (corn; Zea mays, post-emergence, 240 h, 500 g ai/ha, 0 to 100 scale where 0 is no effect and 100 is complete control): 90%
plant injury at 16 g/ha (soybean; Glycine max, pre-emergence, 16 g ai/ha, preemergence, scale 0 to 100 (0 no effect, 100 complete control), read-out: Soybean plant response rating): 65%
plant injury at 125 g/ha (soybean; Glycine max, pre-emergence, 125 g ai/ha, preemergence, scale 0 (no effect) to 100 (complete control), read-out: Soybean plant response rating): 98%
plant injury at 62 g/ha (soybean; Glycine max, pre-emergence, Preemergence, 62 g ai/ha, scale 0 to 100, 0 no effect, 100 complete control, read-out: Plant response rating, Soybean): 95%
Barnyardgrass plant response rating (0 to 100 scale, 0 is no effect, 100 is complete control) (barnyardgrass [1]; 125 g ai/ha): 100
pest or weed control at 31 g/ha (barnyardgrass [1]; Echinochloa crus-galli, pre-emergence, 240 h, 31 g ai/ha, 0 to 100 scale where 0 is no effect and 100 is complete control, visual, approximately 10 days, read-out: Plant response rating, Barnyardgrass): 70%
pest or weed control at 500 g/ha (barnyardgrass [1]; Echinochloa crus-galli, pre-emergence, 240 h, 500 g ai/ha, 0 to 100 scale where 0 is no effect and 100 is complete control, read-out: Barnyardgrass plant response rating): 100%
pest or weed control at 250 g/ha (barnyardgrass [2]; Echinochloa crus-galli, read-out: Plant response rating, Barnyardgrass): 40%
pest or weed control at 16 g/ha (Italian ryegrass; Lolium multiflorum, pre-emergence, 16 g ai/ha, preemergence, scale 0 to 100 (0 no effect, 100 complete control), read-out: Ryegrass, Italian plant response rating): 0%
pest or weed control at 125 g/ha (Italian ryegrass; Lolium multiflorum, pre-emergence, 125 g ai/ha, preemergence, scale 0 (no effect) to 100 (complete control), read-out: Ryegrass, Italian plant response rating): 90%
pest or weed control at 62 g/ha (Italian ryegrass; Lolium multiflorum, pre-emergence, Preemergence, 62 g ai/ha, scale 0 to 100, 0 no effect, 100 complete control, read-out: Plant response rating, Ryegrass, Italian): 60%
pest or weed control at 16 g/ha (galium; Galium, pre-emergence, 16 g ai/ha, preemergence, scale 0 to 100 (0 no effect, 100 complete control), read-out: Galium plant response rating): 80%
pest or weed control at 125 g/ha (galium; Galium, pre-emergence, 125 g ai/ha, preemergence, scale 0 (no effect) to 100 (complete control), read-out: Galium plant response rating): 98%
pest or weed control at 62 g/ha (galium; Galium, pre-emergence, Preemergence, 62 g ai/ha, scale 0 to 100, 0 no effect, 100 complete control, read-out: Plant response rating, Galium): 90%
pest or weed control at 16 g/ha (barnyardgrass [3]; Echinochloa crus-galli, pre-emergence, 16 g ai/ha, preemergence, scale 0 to 100 (0 no effect, 100 complete control), read-out: Barnyardgrass plant response rating): 10%
pest or weed control at 125 g/ha (barnyardgrass [3]; Echinochloa crus-galli, pre-emergence, 125 g ai/ha, preemergence, scale 0 (no effect) to 100 (complete control), read-out: Barnyardgrass plant response rating): 100%
pest or weed control at 62 g/ha (barnyardgrass [3]; Echinochloa crus-galli, pre-emergence, Preemergence, 62 g ai/ha, scale 0 to 100, 0 no effect, 100 complete control, read-out: Plant response rating, Barnyardgrass): 100%
pest or weed control at 16 g/ha (large (Lg) crabgrass; Digitaria sanguinalis, pre-emergence, 16 g ai/ha, preemergence, scale 0 to 100 (0 no effect, 100 complete control), read-out: Crabgrass, Large plant response rating): 60%
pest or weed control at 125 g/ha (large (Lg) crabgrass; Digitaria sanguinalis, pre-emergence, 125 g ai/ha, preemergence, scale 0 (no effect) to 100 (complete control), read-out: Crabgrass, Large plant response rating): 100%
pest or weed control at 62 g/ha (large (Lg) crabgrass; Digitaria sanguinalis, pre-emergence, Preemergence, 62 g ai/ha, scale 0 to 100, 0 no effect, 100 complete control, read-out: Plant response rating, Crabgrass, Large): 100%
